# Source: patent US4140764A, “β-Lactamase inhibitors and process for their preparation” (priority 1975, dated 1979)
# Structures can show the parent of a compound that is named as a salt.
# Experiments:
# [1] = system: Escherichia coli B 11; test: Antibacterial synergism, microtitre method (Example 42); type: cell-based; details: B11, Table 5, inoculum 0.5 × 10^-2, read-out: Minimum Inhibitory Concentration, compound alone
# [2] = system: Klebsiella aerogenes A; test: as above; type: cell-based; details: Table 8, strain A
# [3] = system: Enterobacter cloacae; test: as above; type: cell-based; details: Table 5, inoculum 0.5 × 10^-2, read-out: Minimum Inhibitory Concentration, compound alone
# [4] = system: Klebsiella Aerogenes E 70; test: as above; type: cell-based; details: Table 8, strain E 70
# [5] = system: Klebsiella Aerogenes 62; test: as above; type: cell-based; details: Table 8, strain 62
# [6] = system: Staphylococcus aureus (Russell); test: Synergism of clavulanic acid methyl ester, M.I.C. (Example 32); type: cell-based
# [7] = system: Proteus mirabilis C889; test: as above; type: cell-based
# [8] = molecular target: T1, β-lactamase of E. coli JT410 (Escherichia coli, UniProt P00811); test: standard enzyme inhibitory assay (Example 49); type: biochemical; details: read-out: I50 (converted)
# T1 construct: E. coli JT410; endogenous in cells; host or cells: Escherichia coli JT410
# [9] = system: Staphylococcus aureus (Russell); test: Antibacterial synergism, microtitre method (Example 42); type: cell-based
# [10] = Hydrolysis of the methyl ester to clavulanic acid in pH 7 buffer; type: physicochemical
# Description: Many esters of clavulanic acid differ from analagous esters of penicillins or cephalosporins in that they show an enhanced tendency to hydrolyze to clavulanic acid under mild conditions. […] Esters which undergo some hydrolysis under mild conditions are included within the formula (IX): [drawing 8] wherein R^1 is a hydrocarbon group of 1- 9 carbon atoms optionally substituted by halogen, lower alkoxy, hydroxyl or optionally salted basic groups of the formula NR^2 R^3 wherein R^2 is a hydrogen atom or a lower alkyl group, R^3 is a hydrogen atom or a lower alkyl group or is attached to R^2 so that NR^2 R^3 is a 5- or 6- membered ring.
# The reaction was followed by paper chromatography (bioautographic system). Using the butanol/ethanol/water system to follow the reaction over a period of 2 hours the zone of the methyl ester at Rf 0.79 decreased in size as the zone of clavulanic acid at Rf 0.12 increased.
# [11] = system: Staphylococcus aureus; test: Antibacterial synergism, microtitre method (Example 42); type: cell-based; details: Table 6
# T1 sequence (P00811 20-377): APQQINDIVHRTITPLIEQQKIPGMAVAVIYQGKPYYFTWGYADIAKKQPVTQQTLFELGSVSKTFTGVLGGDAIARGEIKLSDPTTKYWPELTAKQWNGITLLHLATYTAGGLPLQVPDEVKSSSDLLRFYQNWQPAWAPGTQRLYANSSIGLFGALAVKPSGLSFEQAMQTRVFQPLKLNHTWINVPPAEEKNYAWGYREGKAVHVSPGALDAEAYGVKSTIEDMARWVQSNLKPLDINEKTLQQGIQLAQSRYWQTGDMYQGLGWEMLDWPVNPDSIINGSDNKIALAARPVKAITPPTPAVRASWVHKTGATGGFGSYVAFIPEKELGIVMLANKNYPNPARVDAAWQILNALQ
smiles,measurement,setting,value
CC1(C)S[C@@H]2[C@H](NC(=O)[C@H](N)c3ccccc3)C(=O)N2[C@H]1C(=O)O [ampicillin],MIC,[1],> 500 mg/L
same,MIC of Ampicillin + 5 μg/ml of Benzyl Ester of clavulanic acid,[2],1.9 mg/L
same,MIC of Ampicillin + 5 μg/ml of Methyl Ester of clavulanic acid,[2],1.9 mg/L
same,MIC,[3],250 mg/L
same,MIC of Ampicillin + 5 μg/ml of Benzyl Ester of clavulanic acid,[4],3.9 mg/L
same,MIC of Ampicillin + 5 μg/ml of Methyl Ester of clavulanic acid,[4],3.9 mg/L
same,MIC of Ampicillin + 5 μg/ml of Benzyl Ester of clavulanic acid,[5],3.9 mg/L
same,MIC of Ampicillin + 5 μg/ml of Methyl Ester of clavulanic acid,[5],3.9 mg/L
same,M.I.C. of antibiotic in the presence of 1.0 μg/ml. clavulanic acid methyl ester,[6],< 0.4 µg/mL
same,M.I.C. of ampicillin in the presence of 5 μg/ml. clavulanic acid methyl ester,[7],31 µg/mL
"O=C(COc1ccccc1)OC/C=C1\O[C@@H]2CC(=O)N2[C@H]1C(=O)OCc1ccccc1 [benzyl phenoxyacetylclavulanate, Benzyl Phenoxyacetylclavulanate]",IC50,[8],3.54 µM
O=C(Cc1cccs1)N[C@@H]1C(=O)N2C(C(=O)[O-])=C(C[n+]3ccccc3)CS[C@H]12 [cephaloridine],Minimum Inhibitory Concentration of cephaloridine with synergist added at 1 μg/ml instead of 5 μg/ml,[9],Same value
COC(=O)[C@H]1/C(=C/CO)O[C@@H]2CC(=O)N21 [clavulanic acid methyl ester],conversion of the ester to clavulanic acid,"[10]; 1 mg/ml, 37° C., 0.05M phosphate buffer pH 7, followed over 2 hours",Slow conversion
same,hydrolysis to clavulanic acid,[10]; water buffered to pH7,slowly hydrolyze
"O=C(O)[C@H]1/C(=C/CO)O[C@@H]2CC(=O)N21 [clavulanic acid sodium salt, 3-(β-hydroxyethylidine)-7-oxo-4-oxa-1-azabicyclo [3,2,0]heptane-2-carboxylic acid sodium salt]","Minimum Inhibitory Concentration, compound alone",[9]; Table 6,15 µg/mL
same,"Minimum Inhibitory Concentration, compound alone",[11],62 µg/mL
